Data from US12516046B2, “2-oxo-oxazolidine-5-carboxamides as NAV1.8 inhibitors” (Merck Sharp & Dohme LLC, priority 2020, dated 2026).

target: human Nav1.8 (Homo sapiens (Human), UniProt Q9Y5Y9); assay: Nav1.8 Qube® Assay (automated 384-well patch-clamp); type: cell-based; conditions: human Nav1.8 channels stably expressed in HEK 293 cells
Description: Qube® Assay Experimental Procedure

Chain of human Nav1.8 (Q9Y5Y9 whole entry): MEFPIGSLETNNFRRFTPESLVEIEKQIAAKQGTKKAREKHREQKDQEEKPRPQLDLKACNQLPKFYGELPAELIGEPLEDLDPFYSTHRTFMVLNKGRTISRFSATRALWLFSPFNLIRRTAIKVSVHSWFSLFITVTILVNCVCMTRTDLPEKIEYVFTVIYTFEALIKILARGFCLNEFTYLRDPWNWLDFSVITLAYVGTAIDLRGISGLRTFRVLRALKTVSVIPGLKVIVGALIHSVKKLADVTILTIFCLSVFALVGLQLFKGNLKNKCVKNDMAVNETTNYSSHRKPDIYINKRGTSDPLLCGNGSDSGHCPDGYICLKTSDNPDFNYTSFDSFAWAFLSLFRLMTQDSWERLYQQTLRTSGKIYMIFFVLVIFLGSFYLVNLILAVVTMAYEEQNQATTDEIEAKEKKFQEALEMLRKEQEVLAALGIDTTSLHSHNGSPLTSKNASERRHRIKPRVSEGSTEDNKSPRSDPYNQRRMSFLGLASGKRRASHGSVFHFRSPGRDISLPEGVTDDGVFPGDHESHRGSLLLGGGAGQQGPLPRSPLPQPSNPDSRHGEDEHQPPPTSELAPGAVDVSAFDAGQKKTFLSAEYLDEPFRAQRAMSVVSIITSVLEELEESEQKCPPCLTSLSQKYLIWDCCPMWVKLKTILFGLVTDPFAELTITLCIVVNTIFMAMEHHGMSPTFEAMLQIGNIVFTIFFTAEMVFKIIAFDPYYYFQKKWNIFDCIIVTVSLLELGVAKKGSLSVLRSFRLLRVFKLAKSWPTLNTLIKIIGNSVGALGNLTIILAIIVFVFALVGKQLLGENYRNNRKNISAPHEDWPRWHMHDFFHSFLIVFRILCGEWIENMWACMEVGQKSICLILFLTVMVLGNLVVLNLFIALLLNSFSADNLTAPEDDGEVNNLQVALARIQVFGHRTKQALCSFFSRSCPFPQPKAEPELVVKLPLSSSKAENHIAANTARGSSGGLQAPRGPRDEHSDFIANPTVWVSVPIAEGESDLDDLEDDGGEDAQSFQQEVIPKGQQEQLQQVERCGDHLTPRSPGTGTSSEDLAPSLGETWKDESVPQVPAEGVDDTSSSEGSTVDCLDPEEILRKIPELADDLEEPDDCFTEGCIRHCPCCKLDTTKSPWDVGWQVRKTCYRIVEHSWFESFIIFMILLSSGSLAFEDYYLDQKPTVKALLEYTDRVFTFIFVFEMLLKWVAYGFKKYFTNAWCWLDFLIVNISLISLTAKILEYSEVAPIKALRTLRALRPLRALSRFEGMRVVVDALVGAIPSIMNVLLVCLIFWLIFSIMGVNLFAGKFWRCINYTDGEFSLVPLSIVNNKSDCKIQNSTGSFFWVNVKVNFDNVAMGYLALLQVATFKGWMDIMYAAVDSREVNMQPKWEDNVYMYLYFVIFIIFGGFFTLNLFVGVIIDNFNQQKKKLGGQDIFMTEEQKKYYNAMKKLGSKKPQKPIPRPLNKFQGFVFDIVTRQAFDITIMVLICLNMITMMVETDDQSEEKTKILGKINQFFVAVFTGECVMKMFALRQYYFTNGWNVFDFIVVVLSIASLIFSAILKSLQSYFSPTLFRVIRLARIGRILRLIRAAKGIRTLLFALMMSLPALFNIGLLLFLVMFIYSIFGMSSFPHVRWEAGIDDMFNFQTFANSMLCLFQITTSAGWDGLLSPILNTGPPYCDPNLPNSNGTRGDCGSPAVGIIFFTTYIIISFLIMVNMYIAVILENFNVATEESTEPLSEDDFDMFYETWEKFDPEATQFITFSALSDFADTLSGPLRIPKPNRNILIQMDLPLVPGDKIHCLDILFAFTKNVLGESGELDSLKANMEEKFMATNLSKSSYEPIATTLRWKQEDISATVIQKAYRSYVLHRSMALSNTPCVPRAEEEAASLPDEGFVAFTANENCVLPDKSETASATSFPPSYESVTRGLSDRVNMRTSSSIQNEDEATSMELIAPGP

Compound	IC50 [nM]
O=C1NC[C@@H](C(=O)NC(c2ccc(Cl)cc2)C23C4C5C6C4C2C6C53)O1 (single isomer, unassigned) [Example 56B, (S)—N—((R or S)-(4-chlorophenyl)(cuban-1-yl)methyl)-2-oxooxazolidine-5-carboxamide]	289
O=C1NC[C@@H](C(=O)NC(c2ccc(Cl)cc2)C2CCCCCC2)O1 (stereo partly drawn) [Example 45, (5S)-N-((4-chlorophenyl)(cyclo-heptyl)methyl)-2-oxooxazolidine-5-carboxamide]	87
Cn1nc(C(NC(=O)[C@@H]2CNC(=O)O2)c2ccc(F)c(Cl)c2)cc1C(F)(F)F (single isomer, unassigned) [Example 62B, (S)-N-((R or S)-(3-chloro-4-fluorophenyl)(1-methyl-5-(trifluoromethyl)-1H-pyrazol-3-yl)methyl)-2-oxooxazolidine-5-carboxamide]	11
O=C1NC[C@@H](C(=O)NC(c2ccc(Cl)cc2)c2nc(C(F)(F)F)c[nH]2)O1 (stereo partly drawn) [Example 40, (5S)-N-((4-chlorophenyl)(4-(trifluoromethyl)-1H-imidazol-2-yl)methyl)-2-oxooxazolidine-5-carboxamide]	397
O=C1NC[C@@H](C(=O)NC(c2ccc(Cl)c(C(F)(F)F)n2)C2CCC(F)(F)CC2)O1 (single isomer, unassigned) [Example 63B, (S)-N-((R or S)-(5-chloro-6-(trifluoromethyl)pyridin-2-yl)(4,4-difluoro-cyclohexyl)methyl)-2-oxooxazolidine-5-carboxamide]	574
O=C1NC[C@@H](C(=O)NC(c2ccc(Cl)cc2)c2coc(C(F)(F)F)n2)O1 (single isomer, unassigned) [Example 18B, (S)-N-((R or S)-(4-chlorophenyl)(2-(trifluoromethyl)oxazol-4-yl)methyl)-2-oxooxazolidine-5-carboxamide]	272
O=C1NC[C@@H](C(=O)NC(c2ccc(Cl)cc2)c2nc(C(F)(F)F)cs2)O1 (single isomer, unassigned) [Example 12B, (S)-N-((R or S)-(4-chlorophenyl)(4-(trifluoromethyl)thiazol-2-yl)methyl)-2-oxooxazolidine-5-carboxamide]	323
O=C1NC[C@@H](C(=O)NC(c2ccc(C(F)(F)F)nc2)c2csc(C(F)(F)F)n2)O1 (stereo partly drawn) [Example 64, (5S)-2-oxo-N-((6-(trifluoromethyl)pyridin-3-yl)(2-(trifluoromethyl)thiazol-4-yl)methyl)oxazolidine-5-carboxamide]	129
O=C1NC[C@@H](C(=O)NC(c2ccc(F)c(Cl)c2)c2ccc(F)c(OCC(F)(F)F)n2)O1 (single isomer, unassigned) [Example 1A, (S)—N—((R or S)-(3-chloro-4-fluorophenyl)(5-fluoro-6-(2,2,2-trifluoroethoxy)pyridin-2-yl)methyl)-2-oxooxazolidine-5-carboxamide]	46
O=C1NC[C@@H](C(=O)NC(c2ccc(OC(F)(F)F)c(Cl)c2)c2ccnc(C(F)(F)F)n2)O1 (single isomer, unassigned) [Example 52B, (S)-N-((R or S)-(3-chloro-4-(trifluoromethoxy)phenyl)(2-(trifluoro-methyl)pyrimidin-4-yl)methyl)-2-oxooxazolidine-5-carboxamide]	13
O=C1NC[C@@H](C(=O)NC(c2ccc(Cl)cc2)c2ccc(F)cn2)O1 (single isomer, unassigned) [Example 23A, (S)-N-((R or S)-(4-chlorophenyl)(5-fluoropyridin-2-yl)methyl)-2-oxooxazolidine-5-carboxamide]	1350
CC1NC(=O)OC1C(=O)NC(c1ccc(Cl)cc1)c1ccc(Cl)cc1 (single isomer, unassigned) [Example 6A, (cis or trans)-N-(bis(4-chlorophenyl)methyl)-4-methyl-2-oxooxazolidine-5-carboxamide]	442
O=C1NC[C@@H](C(=O)NC(c2ccc(F)c(Cl)c2F)[C@@H]2C[C@@H]3[C@H](C2)C3(F)F)O1 (single isomer, unassigned) [Example 74B, (S)-N-((R or S)-(3-chloro-2,4-difluorophenyl) ((trans)-6,6-difluorobicyclo[3.1.0]hexan-3-yl)methyl)-2-oxooxazolidine-5-carboxamide]	389
O=C1NC[C@@H](C(=O)NC(c2ccc(F)c(Cl)c2)c2cnn(CC(F)(F)F)c2)O1 (single isomer, unassigned) [Example 59A, (S)-N-((R or S)-(3-chloro-4-fluorophenyl)(1-(2,2,2-trifluoroethyl)-1H-pyrazol-4-yl)methyl)-2-oxooxazolidine-5-carboxamide]	171
O=C1NC[C@@H](C(=O)NC(c2ccc(Cl)c(C(F)(F)F)n2)C2CCC(F)(F)CC2)O1 (single isomer, unassigned) [Example 63A, (S)-N-((R or S)-(5-chloro-6-(trifluoromethyl)pyridin-2-yl)(4,4-difluoro-cyclohexyl)methyl)-2-oxooxazolidine-5-carboxamide]	12
CC1(C(=O)NC(c2ccc(Cl)cc2)c2ccc(Cl)cc2)CNC(=O)O1 (single isomer, unassigned) [Example 7A, (R or S)—N-(bis(4-chlorophenyl)methyl)-5-methyl-2-oxooxazolidine-5-carboxamide]	14900

Compound	IC50 [nM]
O=C1NC[C@@H](C(=O)NC(c2ccc(OC(F)(F)F)c(Cl)c2)c2cnn(C(F)(F)F)c2)O1 (single isomer, unassigned) [Example 53A, (S)-N-((R or S)-(3-chloro-4-(trifluoro-methoxy)phenyl)(1-(trifluoromethyl)-1H-pyrazol-4-yl)methyl)-2-oxooxazolidine-5-carboxamide]	22
Cc1cc(C(NC(=O)[C@@H]2CNC(=O)O2)c2ccc(Cl)cc2)ccc1Cl (single isomer, unassigned) [Example 46B, (S)-N-((R or S)-(4-chloro-3-methylphenyl)(4-chlorophenyl)methyl)-2-oxooxazolidine-5-carboxamide]	1.8
O=C1NC[C@@H](C(=O)NC(c2ccc(F)c(Cl)c2)c2ccc(F)c(C(F)(F)F)n2)O1 (stereo partly drawn) [Example 38, (5S)-N-((3-chloro-4-fluorophenyl)(5-fluoro-6-(trifluoromethyl)pyridin-2-yl)methyl)-2-oxooxazolidine-5-carboxamide]	2.1
O=C1NC[C@@H](C(=O)NC(c2ccc(F)c(Cl)c2)c2csc(C(F)(F)F)n2)O1 (single isomer, unassigned) [Example 44B, (S)—N—((R or S)-(3-chloro-4-fluorophenyl)(2-(trifluoro-methyl)thiazol-4-yl)methyl)-2-oxooxazolidine-5-carboxamide]	17
CC(C)c1cccc(C(NC(=O)[C@@H]2CNC(=O)O2)c2ccc(Cl)cc2)c1 (single isomer, unassigned) [Example 32A, (S)-N-((R or S)-(4-chlorophenyl)(3-isopropylphenyl)methyl)-2-oxooxazolidine-5-carboxamide]	5
O=C1NC[C@@H](C(=O)NC(c2ccc(Cl)cc2)C23CCC(CC2)C3)O1 (single isomer, unassigned) [Example 3B, (S)-N-((R or S)-bicyclo[2.2.1]heptan-1-yl(4-chlorophenyl)methyl)-2-oxooxazolidine-5-carboxamide]	1460
O=C1NC[C@@H](C(=O)NC(c2ccc(Cl)cc2)C2CCC(F)(F)C2)O1 (single isomer, unassigned) [Example 57D, (S)-N-((R or S)-(4-chlorophenyl)((R or S)-3,3-difluorocyclopentyl)methyl)-2-oxooxazolidine-5-carboxamide]	1160
O=C1NC[C@@H](C(=O)NC(c2ccc(F)c(Cl)c2)c2ccc(Cl)cn2)O1 (single isomer, unassigned) [Example 14A, (S)-N-((R or S)-(3-chloro-4-fluorophenyl)(5-chloropyridin-2-yl)methyl)-2-oxooxazolidine-5-carboxamide]	21
O=C1NC[C@@H](C(=O)NC(c2ccc(F)c(Cl)c2)c2cc(C(F)(F)F)[nH]n2)O1 (single isomer, unassigned) [Example 5B, (S)—N—((R or S)-(3-chloro-4-fluorophenyl)(5-(trifluoromethyl)-1H-pyrazol-3-yl)methyl)-2-oxooxazolidine-5-carboxamide]	265
O=C1NC[C@@H](C(=O)NC(c2cncc(Cl)c2)c2ccc(F)c(Cl)c2)O1 (single isomer, unassigned) [Example 13B, (S)-N-((R or S)-(3-chloro-4-fluorophenyl)(5-chloropyridin-3-yl)methyl)-2-oxooxazolidine-5-carboxamide]	190
COc1ccc(Cl)cc1C(NC(=O)[C@@H]1CNC(=O)O1)c1cccc(Cl)c1 (single isomer, unassigned) [Example 28A, (S)-N-((R or S)-(5-chloro-2-methoxyphenyl)(3-chlorophenyl)methyl)-2-oxooxazolidine-5-carboxamide]	21
O=C1NC[C@@H](C(=O)NC(c2ccc(F)c(Cl)c2F)[C@@H]2C[C@@H]3[C@H](C2)C3(F)F)O1 (single isomer, unassigned) [Example 74A, (S)-N-((R or S)-(3-chloro-2,4-difluorophenyl) ((trans)-6,6-difluorobicyclo[3.1.0]hexan-3-yl)methyl)-2-oxooxazolidine-5-carboxamide]	11
O=C1NC[C@@H](C(=O)NC(c2ccc(Cl)cc2)c2cccc3ccccc23)O1 (stereo partly drawn) [Example 30, (5S)-N-((4-chlorophenyl) (naphthalen-1-yl)methyl)-2-oxooxazolidine-5-carboxamide]	2.4
CS(=O)(=O)c1cccc(C(NC(=O)[C@@H]2CNC(=O)O2)c2ccc(Cl)cc2)c1 (stereo partly drawn) [Example 27, (5S)-N-((4-chlorophenyl)(3-(methylsulfonyl)phenyl)methyl)-2-oxooxazolidine-5-carboxamide]	705
O=C1NC[C@@H](C(=O)NC(COc2ccc(C(F)(F)F)nc2)c2ccc(F)c(Cl)c2)O1 (stereo partly drawn) [Example 66, (5S)-N-(1-(3-chloro-4-fluorophenyl)-2-((6-(trifluoro-methyl)pyridin-3-yl)oxy)ethyl)-2-oxooxazolidine-5-carboxamide]	268
